In test [1] the target is T1, human NPY Y5 receptor (Homo sapiens, UniProt Q15761).
T1 construct: expressed in transfected cells
T1 sequence (Q15761 1-445): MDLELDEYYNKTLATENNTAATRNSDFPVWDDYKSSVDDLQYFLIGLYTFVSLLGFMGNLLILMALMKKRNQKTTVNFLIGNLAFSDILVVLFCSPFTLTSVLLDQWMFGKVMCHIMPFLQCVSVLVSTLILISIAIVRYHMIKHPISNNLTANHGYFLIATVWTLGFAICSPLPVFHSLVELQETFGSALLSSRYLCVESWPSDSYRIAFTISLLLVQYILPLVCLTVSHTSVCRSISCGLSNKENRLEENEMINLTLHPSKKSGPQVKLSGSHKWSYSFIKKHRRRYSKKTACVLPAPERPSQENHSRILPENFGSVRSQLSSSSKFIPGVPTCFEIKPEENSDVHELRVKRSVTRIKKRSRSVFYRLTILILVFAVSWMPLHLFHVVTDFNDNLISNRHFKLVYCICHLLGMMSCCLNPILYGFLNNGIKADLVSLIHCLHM
Nature of the test: Affinity for NPY Y5 receptor ([125I] peptide YY binding, CHO cell membranes). Particulars: inhibition of specific [125I] peptide YY binding, membranes of CHO cells expressing NPY Y5 receptor. A digest of the protocol: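 IC50 is inhibition of specific [125I] peptide YY binding (60 pM final; non-specific defined by 200 nM peptide YY), read by gamma counting after filtration. Binding used stably transfected CHO-cell membranes with compound, 2 hours at 25° C, pH 7.4 HEPES-Hanks/0.1% BSA.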

For test [2], the target named is T2, NPY Y2 receptor (Homo sapiens, UniProt P49146).
T2 construct: membranes prepared from Y2-expression cells (human neuroblastoma, SMS-KAN); endogenous in cells; host or cells: SMS-KAN human neuroblastoma cells (membranes)
T2 sequence (P49146 1-381): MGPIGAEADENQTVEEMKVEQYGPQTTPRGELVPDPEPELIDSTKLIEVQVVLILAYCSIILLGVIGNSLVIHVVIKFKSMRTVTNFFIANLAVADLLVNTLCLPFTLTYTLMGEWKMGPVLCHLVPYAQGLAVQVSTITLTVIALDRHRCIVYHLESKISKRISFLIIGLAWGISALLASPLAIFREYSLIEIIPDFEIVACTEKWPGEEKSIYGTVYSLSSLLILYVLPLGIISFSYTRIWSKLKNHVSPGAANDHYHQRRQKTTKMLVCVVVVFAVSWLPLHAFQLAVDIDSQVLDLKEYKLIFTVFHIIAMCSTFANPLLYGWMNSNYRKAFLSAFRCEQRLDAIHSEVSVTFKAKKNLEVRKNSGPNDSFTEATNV
Nature of the test: Affinity for NPY Y2 receptor (membranes from SMS-KAN cells). Particulars: membranes from Y2-expression cells (human neuroblastoma, SMS-KAN); read-out: Binding IC50 for NPY Y2 receptor. As for the experimental part:
(§1) The membranes prepared from the above CHO cells expressing NPY Y5 receptor, the compound of the present invention and 30,000 cpm [^125I] peptide YY (60 pM of final concentration: Amersham) were incubated in the assay buffer (20 mM HEPES-Hanks buffer containing 0.1% bovine serum albumin, pH 7.4) at 25° C. for 2 hours, and then the mixture was filtered with a glassfilter GF/C treated with polyethyleneimine. After the glassfilter was washed with 50 mM Tris-HCl buffer (pH 7.4), the radioactivity on the filter was measured with a gamma counter. The non-specific binding was detected in the presence of 200 nM of peptide YY. The 50% inhibitory concentration of the test compound against the specific peptide YY binding (IC50 value) was calculated (Inui, A. et al. Endocrinology 131, 2090-2096 (1992)).
(§2) Using the membranes prepared from Y1-expression cells (human neuroblastoma, SK-N-MC) and the membranes prepared from Y2-expression cells (human neuroblastoma, SMS-KAN), the experiment was carried out in a similar way as Experiment 1 to determine the affinity for NPY Y1 receptor and NPY Y2 receptor.

The target of test [3] is T3, NPY Y1 receptor (Homo sapiens, UniProt P25929).
T3 construct: membranes prepared from Y1-expression cells (human neuroblastoma, SK-N-MC); endogenous in cells; host or cells: SK-N-MC human neuroblastoma cells (membranes)
T3 sequence (P25929 1-384): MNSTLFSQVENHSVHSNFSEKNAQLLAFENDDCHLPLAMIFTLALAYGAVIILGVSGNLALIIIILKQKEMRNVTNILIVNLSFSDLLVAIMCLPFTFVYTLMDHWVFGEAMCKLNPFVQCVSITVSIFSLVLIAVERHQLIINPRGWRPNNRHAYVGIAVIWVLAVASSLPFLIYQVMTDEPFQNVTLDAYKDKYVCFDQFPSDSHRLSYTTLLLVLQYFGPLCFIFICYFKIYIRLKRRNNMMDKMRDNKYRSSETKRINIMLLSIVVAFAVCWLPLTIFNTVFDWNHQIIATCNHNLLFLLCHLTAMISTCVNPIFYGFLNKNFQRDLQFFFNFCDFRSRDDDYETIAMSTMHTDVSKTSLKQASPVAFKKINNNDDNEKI
Nature of the test: Affinity for NPY Y1 receptor (membranes from SK-N-MC cells). Particulars: membranes from Y1-expression cells (human neuroblastoma, SK-N-MC); read-out: Binding IC50 for NPY Y1 receptor. The method, then: as §1, §2

Test [4] deals with T1, human NPY Y5 receptor. Nature of the test: cAMP production inhibitory activity in CHO cells. The class given is cell-based. Particulars: against 50 nM NPY inhibition of forskolin stimulated cAMP, CHO cells expressing human NPY Y5 receptor. A digest of the protocol: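 Supernatant cAMP quantified by EIA after HCl stop, following 30 min stimulation with 10 μM forskolin and 50 nM NPY. Compound was added 5 min before stimulation to human NPY Y5-expressing CHO cells pretreated 20 min at 37 °C with 2.5 mM isobutylmethylxanthine.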
On the technique in general: Changes in cAMP serve as a functional read-out for many G protein-coupled receptors.

In the case of `C[C@@H]1CN(c2ccc(NC(=O)[C@H]3CC[C@H](NS(=O)(=O)C(C)(C)C)CC3)cc2F)C[C@H](C)O1` [Ia-21], the IC50 in test [1] was 3.4 nM; in test [2], no less than 100 µM; in test [3], no less than 100 µM; in test [4], 35 nM.
Take `Cc1cc(NC(=O)[C@H]2CC[C@H](NS(=O)(=O)C(C)(C)C)CC2)ccc1N1C[C@@H](C)O[C@@H](C)C1` [Ia-22]: the IC50 in test [1] is 3.1 nM; in test [2], no less than 100 µM; in test [3], no less than 100 µM; in test [4], 38 nM.
With `C[C@@H]1CN(c2ccc(NC(=O)C3CCC(NS(=O)(=O)C(C)(C)C)CC3)c(F)c2)C[C@H](C)O1` (stereo partly drawn) [Ia-26], the IC50 in test [1] is 1.9 nM; in test [2], no less than 100 µM; in test [3], no less than 100 µM; in test [4], 27 nM.
On to `Cc1cc(N2C[C@@H](C)O[C@@H](C)C2)ccc1NC(=O)C1CCC(NS(=O)(=O)C(C)(C)C)CC1` (stereo partly drawn) [Ia-28], for which the IC50 is 5.2 nM in test [1], no less than 100 µM in test [2], no less than 100 µM in test [3] and 130 nM in test [4].
Regarding `C[C@@H]1CN(c2ccc(NC(=O)C3CCC(NS(=O)(=O)C(C)(C)C)CC3)c(F)c2F)C[C@H](C)O1` (stereo partly drawn) [Ia-29], the IC50 in test [1] was 1 nM; in test [2], no less than 100 µM; in test [3], no less than 100 µM; in test [4], 7.3 nM.
Take `C[C@@H]1CN(c2c(F)c(F)c(NC(=O)C3CCC(NS(=O)(=O)C(C)(C)C)CC3)c(F)c2F)C[C@H](C)O1` (stereo partly drawn) [Ia-30]: the concentration for half-maximal inhibition (IC50) in test [1] was 2.6 nM; in test [2], no less than 100 µM; in test [3], no less than 100 µM; in test [4], 25 nM.
For `CC(C)(C)S(=O)(=O)NC1CCC(C(=O)Nc2ccc(Cl)cc2Cl)CC1` (stereo not drawn) [Ia-31], the IC50 in test [1] was 3.8 nM; in test [2] it was no less than 100 µM; in test [3] it was no less than 100 µM; in test [4] it was 11 nM.
On to `CC(C)(C)S(=O)(=O)NC1CCC(C(=O)Nc2ccc(Cl)c(Cl)c2)CC1` (stereo not drawn) [Ia-32], for which the IC50 in test [1] is 0.52 nM; in test [2], no less than 100 µM; in test [3] it was no less than 100 µM; in test [4], 6.7 nM.
On to `COc1ccc(NC(=O)C2CCC(NS(=O)(=O)C(C)(C)C)CC2)cc1OC` (stereo not drawn) [Ia-33], for which the IC50 in test [1] was 1.8 nM; in test [2], no less than 100 µM; in test [3], no less than 100 µM; in test [4] it was 64 nM.
As for `C[C@@H]1C[C@H](C)CN(c2ccc(NC(=O)C3CCC(NS(=O)(=O)C(C)(C)C)CC3)cc2)C1` (stereo partly drawn) [Ia-37], the IC50 was 0.73 nM in test [1], no less than 100 µM in test [2], no less than 100 µM in test [3] and 3.8 nM in test [4].
Turning to `COc1ccc(NC(=O)C2CCC(NS(=O)(=O)C(C)(C)C)CC2)cc1Cl` (stereo not drawn) [Ia-39], the IC50 in test [1] is 1.5 nM; in test [2], no less than 100 µM; in test [3], no less than 100 µM; in test [4] it was 3.5 nM.
In the case of `C[C@@H]1CN(c2ccc(NC(=O)C3CCC(NS(=O)(=O)C(C)(C)C)CC3)cn2)C[C@H](C)O1` (stereo partly drawn) [Ia-40], the IC50 was 2.2 nM in test [1], no less than 100 µM in test [2], no less than 100 µM in test [3] and 9.3 nM in test [4].
With `Cc1cc(NC(=O)C2CCC(NS(=O)(=O)C(C)C)CC2)ccc1N1C[C@@H](C)O[C@@H](C)C1` (stereo partly drawn) [Ia-50], the IC50 was 1.7 nM in test [1], no less than 100 µM in test [2], no less than 100 µM in test [3] and 24 nM in test [4].
Consider `CC(C)S(=O)(=O)NC1CCC(C(=O)Nc2ccc(N3C[C@@H](C)O[C@@H](C)C3)nc2)CC1` (stereo partly drawn) [Ia-51], for which the IC50 was 1.3 nM in test [1], no less than 100 µM in test [2], no less than 100 µM in test [3] and 3.4 nM in test [4].
For `Cc1cc(N2C[C@@H](C)O[C@@H](C)C2)ccc1NC(=O)C1CCC(NS(=O)(=O)C(C)C)CC1` (stereo partly drawn) [Ia-54], the IC50 in test [1] is 0.44 nM; in test [2], no less than 100 µM; in test [3] it was no less than 100 µM; in test [4], 9 nM.

A word on the IC50: it is the concentration at which inhibition is half-maximal.
